Values after ≈ are worked out from the molar mass of the structure shown.
Tests used:
[1] = Selectivity index, ratio of IC50 human A549 cells to MIC for Mycobacterium tuberculosis; type: toxicity, cell-based; details: read-out: Selectivity Index
[2] = system: Mycobacterium tuberculosis; experiment: Antimycobacterial activity against Mycobacterium tuberculosis D-211 assessed as growth inhibition after 2 to 3 weeks by turbidometry; type: functional
[3] = system: Mycobacterium tuberculosis; experiment: Antimycobacterial activity against wild type Mycobacterium tuberculosis H37Rv assessed as growth inhibition by resazurin assay; type: functional
[4] = system: Mycobacterium tuberculosis; experiment: Antimycobacterial activity against Mycobacterium tuberculosis H37Rv ATCC 27294 assessed as growth inhibition after 5 days by microdilution method; type: functional; details: H37Rv ATCC 27294, 120 h
[5] = system: Mycobacterium tuberculosis; experiment: Antimycobacterial activity against Mycobacterium tuberculosis H37Rv ATCC 27294 assessed as growth inhibition after 2 to 3 weeks by turbidometry; type: functional
[6] = system: Mycobacterium tuberculosis; experiment: Antimycobacterial activity against Mycobacterium tuberculosis Beijing (E-47/94) assessed as growth inhibition after 2 to 3 weeks by turbidometry; type: functional
[7] = system: Mycobacterium tuberculosis; experiment: Antimycobacterial activity against Mycobacterium tuberculosis H37Rv ATCC 27294 assessed as reduction of colony forming units by microdilution method; type: functional
[8] = Fraction unbound in human plasma at 20 uM by equilibrium dialysis technique; type: ADME, cell-free
[9] = Aqueous kinetic solubility of the compound in 0.1 M phosphate buffer at pH 7.4 by UV-MS analysis; type: physicochemical; details: read-out: Kinetic_solubility
[10] = Octanol-water partition coefficient, log D of the compound by shake flask method; type: physicochemical
[11] = Inhibition of Mycobacterium smegmatis DprE1 expressed in Escherichia coli Rosetta cells using farnesyl-phosphoryl-beta-D-ribofuranose as substrate by fluorescence analysis; design: species or system Mycolicibacterium smegmatis
[12] = system: Mycolicibacterium smegmatis; experiment: Ratio of IC50 for Mycobacterium smegmatis DprE1 Y321H mutant expressed in Escherichia coli Rosetta cells to IC50 for wild type Mycobacterium smegmatis DprE1 expressed in Escherichia coli Rosetta cells
[13] = Inhibition of Mycobacterium smegmatis DprE1 C394G mutant expressed in Escherichia coli Rosetta cells using farnesyl-phosphoryl-beta-D-ribofuranose as substrate by fluorescence analysis; design: species or system Mycolicibacterium smegmatis
[14] = system: Mycolicibacterium smegmatis; experiment: Ratio of IC50 for wild type Mycobacterium smegmatis DprE1 expressed in Escherichia coli Rosetta cells to IC50 for Mycobacterium smegmatis DprE1 C394G mutant expressed in Escherichia coli Rosetta cells
[15] = Inhibition of Mycobacterium smegmatis DprE1 Y321H mutant expressed in Escherichia coli Rosetta cells using farnesyl-phosphoryl-beta-D-ribofuranose as substrate by fluorescence analysis; design: species or system Mycolicibacterium smegmatis
[16] = system: Mycolicibacterium smegmatis; experiment: Ratio of IC50 for Mycobacterium smegmatis DprE1 C394G mutant expressed in Escherichia coli Rosetta cells to IC50 for wild type Mycobacterium smegmatis DprE1 expressed in Escherichia coli Rosetta cells
[17] = system: Mycobacterium tuberculosis; experiment: Antimycobacterial activity against Mycobacterium tuberculosis H37Rv infected in human THP-1 cells assessed as log reduction in colony forming units at 16 uM incubated for 7 days measured after 21 to 28 days; type: functional
[18] = system: Mycobacterium tuberculosis; experiment: Antimycobacterial activity against Mycobacterium tuberculosis H37Rv assessed as log reduction in colony forming units on day 10 by two-fold serial dilution method; type: functional
[19] = system: Mycobacterium tuberculosis; experiment: Antimycobacterial activity against Mycobacterium tuberculosis H37Rv assessed as bacterial killing by two-fold serial dilution method; type: functional, organism-based; details: TDE = time-dependent effect

Structure (SMILES) | MIC [3] | MIC [4] | MBC [7] | IC50 [11] | also measured
O=c1[nH]c2c(cc1CNCc1cccc(C(F)(F)F)c1)c(C1CC1)nn2-c1ccccc1 | > 0.1 µM | 1.5 µM (≈ 0.658 µg/mL) | 2.8 µM (≈ 1.23 µg/mL) | 40 nM | selectivity ratio [1]: 10; MIC [2]: 1.6 µM (≈ 0.702 µg/mL); MIC [5]: 1.6 µM (≈ 0.702 µg/mL); MIC [6]: 1.6 µM (≈ 0.702 µg/mL); fraction unbound at 20 µM [8]: 0.01; solubility kinetic [9]: 1 µM (≈ 0.438 µg/mL); logD [10]: 3.9
Cc1nn(-c2ccccc2)c2[nH]c(=O)c(CNCc3cccc(C#N)c3)cc12 | – | > 100 µM | – | 2600 nM | –
Cc1ccc(C(F)(F)F)nc1CNCc1cc2c(C3CC3)nn(-c3ccccc3)c2[nH]c1=O | – | 1.5 µM (≈ 0.68 µg/mL) | 1.6 µM (≈ 0.726 µg/mL) | 10 nM | selectivity ratio [1]: 10; fraction unbound at 20 µM [8]: < 0.01; solubility kinetic [9]: 1 µM (≈ 0.453 µg/mL); logD [10]: 3.4
COc1nc2c(cc1CNCc1cccc(C(F)(F)F)c1)c(C)nn2-c1ccccc1 | – | > 100 µM | – | > 10000 nM | –
O=c1[nH]c2c(cc1CNCc1cccc(C(F)(F)F)c1F)c(C1CC1)nn2-c1ccccc1 | 0.003 µM (≈ 0.00137 µg/mL) | 1.6 µM (≈ 0.73 µg/mL) | 4.1 µM (≈ 1.87 µg/mL) | < 5 nM | Ratio IC50 [12]: 38; IC50 [13]: 60 nM; Ratio IC50 [14]: 4; IC50 [15]: 8200 nM
Cc1nn(-c2ccccc2)c2[nH]c(=O)c(CN3CCc4ccc(C(F)(F)F)cc4C3)cc12 | – | > 100 µM | – | 6200 nM | –
NNC(=O)c1ccncc1 [ISONIAZID] | 5 µM (≈ 0.686 µg/mL) | – | – | – | MIC [2]: 0.2 µM (≈ 0.0274 µg/mL); MIC [5]: 0.2 µM (≈ 0.0274 µg/mL); MIC [6]: 0.2 µM (≈ 0.0274 µg/mL)
Cc1ccc(-n2nc(C)c3cc(CNCc4cccc(C(F)(F)F)c4)c(=O)[nH]c32)cc1 | – | 12.5 µM (≈ 5.33 µg/mL) | 12.5 µM (≈ 5.33 µg/mL) | 600 nM | –
Cc1nn(-c2ccccc2)c2[nH]c(=O)c(CNCc3cccc(F)c3)cc12 | – | 75 µM (≈ 27.2 µg/mL) | 100 µM (≈ 36.2 µg/mL) | 2000 nM | –
Cc1ccc(C(F)(F)F)cc1CNCc1cc2c(C)nn(-c3ccccc3)c2[nH]c1=O | – | 0.8 µM (≈ 0.341 µg/mL) | 1.2 µM (≈ 0.512 µg/mL) | 7 nM | selectivity ratio [1]: 20; Ratio IC50 [12]: 150; Ratio IC50 [16]: 1; IC50 [13]: 10 nM; fraction unbound at 20 µM [8]: < 0.01; solubility kinetic [9]: 55 µM (≈ 23.5 µg/mL); logD [10]: 3.7; IC50 [15]: 1500 nM
Cc1nn(-c2ccccn2)c2[nH]c(=O)c(CNCc3cccc(C(F)(F)F)c3)cc12 | – | > 100 µM | – | – | –
Cc1nn(-c2ccccc2)c2[nH]c(=O)c(CNCc3cccc(C(F)(F)F)c3)cc12 | > 0.1 µM | 3.1 µM (≈ 1.28 µg/mL) | 8.5 µM (≈ 3.51 µg/mL) | 400 nM | MIC [2]: 3.1 µM (≈ 1.28 µg/mL); MIC [5]: 3.1 µM (≈ 1.28 µg/mL); MIC [6]: 3.1 µM (≈ 1.28 µg/mL)
Cc1nn(-c2ccccc2)c2[nH]c(=O)c(C(=O)NCc3cccc(C(F)(F)F)c3)cc12 | – | > 100 µM | – | 1000 nM | –
Cc1nn(C)c2[nH]c(=O)c(CNCc3cccc(C(F)(F)F)c3)cc12 | – | > 100 µM | – | > 100000 nM | –
CN[C@@H]1[C@H](O[C@H]2[C@H](O[C@H]3[C@H](O)[C@@H](O)[C@H](N=C(N)N)[C@@H](O)[C@@H]3N=C(N)N)O[C@@H](C)[C@]2(O)C=O)O[C@@H](CO)[C@H](O)[C@H]1O [STREPTOMYCIN] | – | – | – | – | MIC [2]: 0.3 µM (≈ 0.174 µg/mL); MIC [5]: 0.3 µM (≈ 0.174 µg/mL); MIC [6]: 0.3 µM (≈ 0.174 µg/mL)
Cc1ccc(CNCc2cc3c(C)nn(-c4ccccc4)c3[nH]c2=O)cc1C | – | 25 µM (≈ 9.31 µg/mL) | 50 µM (≈ 18.6 µg/mL) | 1200 nM | –

Structure (SMILES) | MIC [3] | MIC [4] | MBC [7] | IC50 [11] | also measured
CC1COc2c(N3CCN(C)CC3)c(F)cc3c(=O)c(C(=O)O)cn1c23 (stereo unspecified) [OFLOXACIN] | – | – | – | – | MIC [2]: 0.7 µM (≈ 0.253 µg/mL); MIC [5]: 0.7 µM (≈ 0.253 µg/mL); MIC [6]: 0.7 µM (≈ 0.253 µg/mL)
O=c1[nH]c2c(cc1CNCc1cccc(C(F)(F)F)n1)c(C1CC1)nn2-c1ccccc1 | > 0.1 µM | 3.1 µM (≈ 1.36 µg/mL) | 5.6 µM (≈ 2.46 µg/mL) | 50 nM | selectivity ratio [1]: 20; Ratio IC50 [12]: 40; IC50 [13]: 20 nM; Ratio IC50 [14]: 6; fraction unbound at 20 µM [8]: 0.011; solubility kinetic [9]: 153 µM (≈ 67.2 µg/mL); logD [10]: 3.2; IC50 [15]: 6100 nM
COc1ncnc(Cn2cc(C(=O)NCCF)c3ncccc32)c1C | 1.51 µM (≈ 0.52 µg/mL) | – | – | 5 nM | –
Cc1nn(-c2ccccc2)c2c1cc(CNCc1cccc(C(F)(F)F)c1)c(=O)n2C | – | > 100 µM | – | > 10000 nM | –
Cc1nn(-c2ccccc2)c2[nH]c(=O)c(CNCc3ccccc3)cc12 | – | > 100 µM | – | 1400 nM | –
Cc1ccc(C(F)(F)F)cc1CNCc1cc2c(C3CC3)nn(-c3ccccc3)c2[nH]c1=O | 0.002 µM (≈ 0.000905 µg/mL) | 0.1 µM (≈ 0.0452 µg/mL) | < 0.5 µM | 10 nM | selectivity ratio [1]: > 250; log10cfu [17]: 1; Ratio IC50 [12]: 740; log10cfu [18]: >4; Ratio IC50 [16]: 1; fraction unbound at 20 µM [8]: < 0.01; solubility kinetic [9]: < 1 µM; logD [10]: 3.9; Activity [19]: tde; IC50 [15]: 7400 nM
CCOC(=O)NC(=O)c1ccsc1NC(=O)c1nc2ccccc2s1 | 0.5 µM (≈ 0.188 µg/mL) | – | – | – | –
CC[C@@H](CO)NCCN[C@@H](CC)CO [ETHAMBUTOL] | – | – | – | – | MIC [2]: 2 µM (≈ 0.409 µg/mL); MIC [5]: 2 µM (≈ 0.409 µg/mL); MIC [6]: 2 µM (≈ 0.409 µg/mL)
Cc1cccc(CNCc2cc3c(C)nn(-c4ccccc4)c3[nH]c2=O)c1 | – | 100 µM (≈ 35.8 µg/mL) | 100 µM (≈ 35.8 µg/mL) | 2800 nM | –
Cc1ccc(C(F)(F)F)cc1CNCc1cc2c(C(C)C)nn(-c3ccccc3)c2[nH]c1=O | – | 0.4 µM (≈ 0.182 µg/mL) | < 0.5 µM | < 5 nM | selectivity ratio [1]: 35; fraction unbound at 20 µM [8]: < 0.01; solubility kinetic [9]: 10 µM (≈ 4.54 µg/mL); logD [10]: > 4.4
C[C@@H](NC(=O)c1cc([N+](=O)[O-])cc(C(F)(F)F)c1)c1ccccc1 | 0.943 µM (≈ 0.319 µg/mL) | – | – | – | –
Cc1nn(-c2ccccc2)c2[nH]c(=O)c(CN(C)Cc3cccc(C(F)(F)F)c3)cc12 | – | 1 µM (≈ 0.426 µg/mL) | – | 60 nM | –
CO[C@H]1/C=C/O[C@@]2(C)Oc3c(C)c(O)c4c(O)c(c(/C=N/N5CCN(C)CC5)c(O)c4c3C2=O)NC(=O)/C(C)=C\C=C\[C@H](C)[C@H](O)[C@@H](C)[C@@H](O)[C@@H](C)[C@H](OC(C)=O)[C@@H]1C [RIFAMPIN] | – | – | – | – | MIC [2]: 0.02 µM (≈ 0.0165 µg/mL); MIC [5]: 0.02 µM (≈ 0.0165 µg/mL); MIC [6]: 0.02 µM (≈ 0.0165 µg/mL)
O=c1[nH]c2c(cc1CNCc1cc(C(F)(F)F)ccc1F)c(C1CC1)nn2-c1ccccc1 | 0.002 µM (≈ 0.000913 µg/mL) | 1.6 µM (≈ 0.73 µg/mL) | 4.4 µM (≈ 2.01 µg/mL) | 40 nM | Ratio IC50 [12]: 107; IC50 [13]: 10 nM; Ratio IC50 [14]: 4; IC50 [15]: 4500 nM
C[C@H]1COC2(CCN(c3nc(=O)c4cc(C(F)(F)F)cc([N+](=O)[O-])c4s3)CC2)O1 [BTZ-043] | 0.003 µM (≈ 0.00129 µg/mL) | – | – | 5 nM | –
